Experimental findings from PMC9414584, “Synthesis and Biological Evaluation of Indole-2-Carboxamides with Potent Apoptotic Antiproliferative Activity as EGFR/CDK2 Dual Inhibitors” (Pharmaceuticals, 2022) are described below.

Series [1] addresses CDK2 enzyme (Homo sapiens, UniProt P24941). The series is described as follows: CDK2 inhibitory assay.
The subject of series [2] is breast cancer cell line (MCF-7). The series is described as follows: Antiproliferative MTT assay, MCF-7. In kind it is cell-based. As to conditions: Homo sapiens, MCF7; MCF-7, MTT; read-out: Antiproliferative Activity IC50 ± SEM MCF-7. An excerpt: (§1) Using the MTT assay with doxorubicin as the reference drug, the antiproliferative activities of 5a–k, 6a–c, and 7 against four human cancer cell lines, including pancreas cancer cell line (Panc-1), breast cancer cell line (MCF-7), colon cancer cell line (HT-29), and epithelial cancer cell line (A-549) were investigated.
(Tetrazolium dyes change colour on reduction, which living cells bring about.)

Series [3] can be described thus: Cell viability assay (MTT) on MCF-10A cells. The class given is cell-based. Conditions: human, MCF-10A mammary gland epithelial cells. On the procedure: The MCF-10A (human mammary gland epithelial) cell line was used in the cell viability experiment. Compounds 5a–k, 6a–c, and 7 were incubated with MCF-10A cells for 4 days at 50 µM concentration, and the viability of cells was determined using the 3-(4,5-dimethylthiazol-2-yl)-2,5-diphenyltetrazolium bromide (MTT) test.. All compounds had no cytotoxic effects, and the vitality of the cells was more than 83% for most of the compounds examined.
The MCF-10A (human mammary gland epithelial) cell line was used in the cell viability experiment. Compounds 5a–k, 6a–c, and 7 were incubated with MCF-10A cells for 4 days at 50 µM concentration, and the viability of cells was determined using the 3-(4,5-dimethylthiazol-2-yl)-2,5-diphenyltetrazolium bromide (MTT) test.

The test system of series [4] is Caspase-9 in MCF-7 breast cancer cell line. Put plainly: Caspase-9 level in MCF-7 cells. Conditions: for Caspase-9 Fold Change: vs control cells. In kind it is cell-based, human.
Series [5] has as its system pancreas cancer cell line (Panc-1). Put plainly: Antiproliferative MTT assay, Panc-1. In kind it is cell-based. As to conditions: Homo sapiens; Panc-1, MTT; read-out: Antiproliferative Activity IC50 ± SEM Panc-1.
From the text: as §1

The test system of series [6] is colon cancer cell line (HT-29). The series is described as follows: Antiproliferative MTT assay, HT-29. The class given is cell-based. As to conditions: Homo sapiens; HT-29, MTT; read-out: Antiproliferative Activity IC50 ± SEM HT-29.
From the text: as §1

For series [7], the system named is epithelial cancer cell line (A-549). Put plainly: Antiproliferative MTT assay, A-549. In kind it is cell-based. As to conditions: Homo sapiens, A549; A-549, MTT; read-out: Antiproliferative Activity IC50 ± SEM A-549.
From the text: as §1

Series [8] relates to Cytochrome C in MCF-7 human breast cancer cell line. Put plainly: Cytochrome C assay in MCF-7 cells. In kind it is cell-based. Conditions: for Cytochrome C Fold Change: vs untreated control cells. How it is done:
The quantity of cytochrome C within the cell is important for activating caspases and commencing the intrinsic apoptosis process. […] The findings add to the evidence that apoptosis can be attributed to Cytochrome C overexpression and activation of the intrinsic apoptotic pathway triggered by the investigated compounds.
Indole-2-carboxamide derivatives 5d, 5e, and 5h were evaluated as Cytochrome C activators in the MCF-7 human breast cancer cell line.

For series [9], the system named is Bax in breast cancer cell line (MCF-7). Put plainly: Bax level assay in MCF-7 cells. The class given is cell-based, human.
Series [10] concerns Caspase-8 in MCF-7 breast cancer cell line. The series is described as follows: Caspase-8 level in MCF-7 cells. As to conditions: for Caspase-8 Fold Change: vs control cells. In kind it is cell-based, human.
Series [11] has as its system four human cancer cell lines (Panc-1, MCF-7, HT-29, A-549). The series is described as follows: Antiproliferative MTT assay, average of four cancer cell lines (mean GI50). The class given is cell-based. Conditions: Homo sapiens; average of A-549, MCF-7, Panc-1, HT-29; read-out: Antiproliferative Activity IC50 Average (GI50 against the four cell lines).
For series [12], the system named is Bcl-2 in breast cancer cell line (MCF-7). Put plainly: Bcl-2 level assay in MCF-7 cells. The class given is cell-based, human.
In series [13] the test system is Caspase-3 in MCF-7 breast cancer cell line. Put plainly: Caspase-3 level in MCF-7 cells. Conditions: for Caspase-3 Fold Change: vs control untreated cells.
Series [14] relates to p53 in MCF-7. The series is described as follows: p53 transcription/level in MCF-7. The class given is cell-based, human. Conditions: MCF-7 cells. The text has this: p53 is a unique protein that participates in several physiological processes such as cell metabolism, stem cell maintenance, and cell adhesion. Because p53 is frequently inactivated in cancer cells, the cells are unable to undergo apoptosis. Similarly, activating, or stabilizing p53 aids cancer cells in normalizing p53-controlled physiological processes and increasing apoptotic activity.

The target of series [15] is EGFR (Homo sapiens, UniProt P00533). Put plainly: EGFR-TK inhibitory assay. As to conditions: read-out: EGFR Inhibition IC50 ± SEM. The class given is biochemical.

Where “and” joins values, the source holds several entries; their conditions need not be identical. Identical values can stand only once.

Sequence of EGFR (P00533 25-1210): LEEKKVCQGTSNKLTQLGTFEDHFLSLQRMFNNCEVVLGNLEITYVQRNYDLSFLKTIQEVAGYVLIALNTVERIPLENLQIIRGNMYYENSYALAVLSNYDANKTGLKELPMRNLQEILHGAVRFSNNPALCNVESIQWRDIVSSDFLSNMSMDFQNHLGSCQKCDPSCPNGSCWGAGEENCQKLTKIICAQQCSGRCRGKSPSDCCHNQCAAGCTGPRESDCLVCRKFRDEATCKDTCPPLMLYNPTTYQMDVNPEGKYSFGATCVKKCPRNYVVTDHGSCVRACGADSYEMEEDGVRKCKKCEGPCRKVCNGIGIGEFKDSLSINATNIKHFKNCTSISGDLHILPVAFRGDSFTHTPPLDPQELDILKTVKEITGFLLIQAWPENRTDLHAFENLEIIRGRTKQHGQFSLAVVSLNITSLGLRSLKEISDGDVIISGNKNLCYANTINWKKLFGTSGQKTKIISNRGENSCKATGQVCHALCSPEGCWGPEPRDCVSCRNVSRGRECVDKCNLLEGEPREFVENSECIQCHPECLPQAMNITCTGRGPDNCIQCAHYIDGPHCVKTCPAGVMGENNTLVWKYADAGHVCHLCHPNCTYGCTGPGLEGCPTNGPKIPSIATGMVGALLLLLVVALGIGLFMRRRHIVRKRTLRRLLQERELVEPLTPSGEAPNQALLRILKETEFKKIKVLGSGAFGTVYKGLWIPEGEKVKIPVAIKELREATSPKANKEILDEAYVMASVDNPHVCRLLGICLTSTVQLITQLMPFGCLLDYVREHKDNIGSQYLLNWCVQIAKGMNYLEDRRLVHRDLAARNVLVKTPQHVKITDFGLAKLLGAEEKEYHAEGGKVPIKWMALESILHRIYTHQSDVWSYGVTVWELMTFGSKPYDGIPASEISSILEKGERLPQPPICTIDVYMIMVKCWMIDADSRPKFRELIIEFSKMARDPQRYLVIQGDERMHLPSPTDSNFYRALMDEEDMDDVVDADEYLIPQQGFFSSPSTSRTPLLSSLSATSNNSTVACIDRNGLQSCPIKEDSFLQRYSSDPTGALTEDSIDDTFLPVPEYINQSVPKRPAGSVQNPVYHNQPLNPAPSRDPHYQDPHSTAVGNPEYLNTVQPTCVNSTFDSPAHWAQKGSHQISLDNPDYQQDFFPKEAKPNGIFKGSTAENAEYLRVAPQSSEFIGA

In general, IC50 refers to the concentration needed to halve the response being measured. As a reminder, the viability is a read-out of living cells in per cent, often relative to untreated cells. Low readings indicate more harm to the cells, high ones less harm to the cells. For orientation: melting point means the temperature, or range, at which the solid turns liquid. For the compound `Cc1c(C(=O)NCCc2ccc(N3CCOCC3)cc2)[nH]c2ccc(Cl)cc12` [Compound 5d, 5-Chloro-3-methyl-N-(4-morpholinophenethyl)-1H-indole-2-carboxamide], the melting point fell in the range of 210 to 212 °C. Also, in [1], the IC50 was determined as 23 ± 2 nM. In series [2], the IC50 is 900 ± 100 nM. The same compound displayed a viability at 4 days, 50 µM in series [3] of 89%. In addition, the “Caspase-9 Conc” value in [4] is 16.90 ng/mL. Further, the IC50 in [5] amounted to 1100 ± 100 nM. Moreover, in series [6], the IC50 came out at 1100 ± 100 nM. Also, the IC50 in series [7] worked out at 1050 ± 100 nM. Besides, in series [8], the “Cytochrome C Conc” value was 0.70 ng/mL. The “Bax Conc” value in [9] was 290 pg/mL and 289.70 ± 2.50 pg/mL. For the same compound, the “Caspase-8 Conc” value in series [10] turned out to be 1.94 ng/mL. The IC50 in series [11] worked out at 1050 nM. Besides, the “Bcl-2 Conc” value in series [12] came out at 0.89 ng/mL. The “Caspase-3 Conc” value in series [13] came to 570.00 ± 5.00 pg/mL. The “p53 Conc” value in series [14] is 1375 pg/mL and 1375 ± 15 pg/mL.

For the compound `Cc1c(C(=O)NCCc2ccc(N3CCCC3C)cc2)[nH]c2ccc(Cl)cc12` (stereo not drawn) [Compound 5e, 5-Chloro-3-methyl-N-(4-(2-methylpyrrolidin-1-yl)phenethyl)-1H-indole-2-carboxamide], the IC50 was found to be 13 ± 1 nM in series [1]; 800 ± 50 nM in series [2]; 1000 ± 200 nM in [5]; 1100 ± 100 nM in [6]; 950 ± 50 nM in [7]; 93 ± 8 nM in series [15]. Also, the IC50 in series [11] stood at 950 nM. Moreover, the “fold more active than dinaciclib on CDK2” value in series [1] (vs reference dinaciclib) was found to be 1.5 fold. In [3], the viability at 4 days, 50 µM came to 93%. The “Caspase-9 Conc” value in series [4] was determined as 17.25 ng/mL. For the same compound, in series [4], the “Caspase-9 Fold Change” value is given as 18.15 fold. Besides, in [8], the “Cytochrome C Conc” value was found to be 0.80 ng/mL. The “Cytochrome C Fold Change” value in series [8] is given as 16 fold. Also, the “Bax Conc” value in series [9] was 296.50 pg/mL and 296.50 ± 2.50 pg/mL. Further, the “Bax Fold Change” value in [9] (increase over control untreated cells) was found to be 36 fold. For the same compound, in series [10], the “Caspase-8 Conc” value is recorded as 2.17 ng/mL. Besides, the “Caspase-8 Fold Change” value in [10] worked out at 10.90 fold. For the same compound, in series [12], the “Bcl-2 Conc” value is given as 0.87 ng/mL. The “Bcl-2 Fold Change” value in series [12] (reduced level vs control) is on record as 5.90 fold. Moreover, the “Caspase-3 Conc” value in [13] is 635.50 ± 5.50 pg/mL. Also, in series [13], the “Caspase-3 Fold Change” value was found to be 9.70 fold. Besides, the “p53 Conc” value in [14] is 1435 pg/mL and 1435 ± 15 pg/mL.

`Cc1c(C(=O)NCCc2ccc(N3CCCCC3)cc2)[nH]c2c(Cl)cc(Cl)cc12` [Compound 5h, 5,7-Dichloro-3-methyl-N-(4-(piperidin-1-yl)phenethyl)-1H-indole-2-carboxamide] showed a melting point of 178 to 180 °C. The IC50 in [1] was 11 ± 1 nM. Besides, the IC50 in series [2] came out at 900 ± 100 nM. The same compound returned a viability at 4 days, 50 µM in series [3] of 87%. Also, in series [4], the “Caspase-9 Conc” value came to 16.65 ng/mL and the “Caspase-9 Fold Change” value came out at 17.50 fold. In series [5], the IC50 stood at 1200 ± 100 nM. The IC50 in [6] came out at 1200 ± 100 nM. In addition, in [7], the IC50 was 1000 ± 100 nM. In addition, in series [15], the IC50 was 118 ± 10 nM. Besides, in series [8], the “Cytochrome C Conc” value is 0.65 ng/mL and the “Cytochrome C Fold Change” value was determined as 13 fold. In series [10], the “Caspase-8 Conc” value was 1.88 ng/mL and the “Caspase-8 Fold Change” value is recorded as 9.50 fold. For the same compound, the IC50 in [11] was 1100 nM. Further, in series [13], the “Caspase-3 Conc” value turned out to be 537.50 ± 5.00 pg/mL and the “Caspase-3 Fold Change” value amounted to 8.20 fold.
